Like-named read-outs stand apart in the source and are kept apart here.
Assays:
[1] = Relative solubility by turbidity threshold concentration in aqueous buffers (pH 1.5, 4.5, 6.8, 7.4); format: physicochemical; details: for turbidity threshold (L, M, H) 1.4: pH 1.4 [sic] (method: SGF pH 1.5); for turbidity threshold (L, M, H) 4.5: pH 4.5 (SIF); for turbidity threshold (L, M, H) 6.8: pH 6.8 (SIF); for turbidity threshold (L, M, H) 7.4: pH 7.4 (HEPES)
How it was run: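 Solubility class (high >250 μM, moderate 31.3–250 μM, low <31.3 μM) comes from the concentration where absorbance reaches a 0.01 threshold, averaged across 490/535/650 nm. Samples were compound dilutions from DMSO stock, 1 μL into 99 μL buffer at pH 1.5, 4.5, 6.8 or 7.4.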

CYP2C19 = CYP2C19 (Homo sapiens (Human), UniProt P33261); experiment: CYP enzyme inhibition, fluorescent substrate (CEC)
How it was run: (§1)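 Human CYP activity was followed by the fluorescence of the metabolized product of a known substrate, which falls as metabolism is inhibited. Compounds from 100 mM DMSO stocks were serially diluted 1:1 over 10 points in co-factor mix and preincubated 10 min at 37 °C. IC50 was fitted from signal versus concentration.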

B-Raf V600E = B-Raf V600E (Homo sapiens (Human), UniProt P15056, V600E); experiment: B-Raf V600E kinase activity biochemical assay (AlphaScreen, biotin-MEK1 phosphorylation); details: for IC50: B-Raf V600E; for Biochemical activity ratio V600E/C: ratio of IC50 B-Raf V600E / c-Raf-1
How it was run: (§2)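 Biotin-MEK1 phosphorylation measured after 45 min kinase reaction at RT with 100 μM ATP final; compounds tested at 8 points from 0.1 mM DMSO stock.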

B-Raf [2] = experiment: B-Raf kinase activity biochemical assay (AlphaScreen, biotin-MEK1 phosphorylation); details: for Biochemical activity ratio B/V600E: ratio of IC50 B-Raf / B-Raf V600E; for Biochemical activity ratio B/C: ratio of IC50 B-Raf / c-Raf-1
How it was run: as §2

B-Raf [3] = target: B-Raf (Homo sapiens (Human), UniProt P15056); experiment: as above; details: B-Raf
How it was run: as §2

CYP1A2 = CYP1A2 (Homo sapiens (Human), UniProt P05177); experiment: CYP enzyme inhibition, fluorescent substrate (CEC)
How it was run: (§3)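 Ten-point 1:1 compound dilutions in NADPH-regenerating cofactor mix, pre-incubated 10 min at 37 °C before enzyme/substrate addition: CYP1A2 0.5 pmol with 5 μM CEC, 15 min, 409 ex/460 em; CYP2D6 1.5 pmol with 1.5 μM AMMC, 30 min, 409 ex/530 em. IC50 from fluorescent product vs concentration.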

CYP2D6 = CYP2D6 (Homo sapiens (Human), UniProt P10635); experiment: CYP enzyme inhibition, fluorescent substrate (AMMC); format: in vitro ADME; details: read-out: Cyp IC50 2D6
How it was run: as §3

CYP3A4(BFC) = CYP3A4(BFC) (Homo sapiens (Human), UniProt P08684); experiment: CYP enzyme inhibition, fluorescent substrate BFC
How it was run: as §1

CYP3A4(BQ) = CYP3A4(BQ) (Homo sapiens (Human), UniProt P08684); experiment: CYP enzyme inhibition, fluorescent substrate BQ
How it was run: as §1

CYP2C9 = CYP2C9 (Homo sapiens (Human), UniProt P11712); experiment: CYP enzyme inhibition, fluorescent substrate (MFC)
How it was run: as §1

c-Raf-1 = c-Raf-1 (Homo sapiens, UniProt P04049); experiment: c-Raf-1 kinase activity biochemical assay (AlphaScreen, biotin-MEK1 phosphorylation)
How it was run: as §2

Chain of CYP2D6 (P10635 whole entry): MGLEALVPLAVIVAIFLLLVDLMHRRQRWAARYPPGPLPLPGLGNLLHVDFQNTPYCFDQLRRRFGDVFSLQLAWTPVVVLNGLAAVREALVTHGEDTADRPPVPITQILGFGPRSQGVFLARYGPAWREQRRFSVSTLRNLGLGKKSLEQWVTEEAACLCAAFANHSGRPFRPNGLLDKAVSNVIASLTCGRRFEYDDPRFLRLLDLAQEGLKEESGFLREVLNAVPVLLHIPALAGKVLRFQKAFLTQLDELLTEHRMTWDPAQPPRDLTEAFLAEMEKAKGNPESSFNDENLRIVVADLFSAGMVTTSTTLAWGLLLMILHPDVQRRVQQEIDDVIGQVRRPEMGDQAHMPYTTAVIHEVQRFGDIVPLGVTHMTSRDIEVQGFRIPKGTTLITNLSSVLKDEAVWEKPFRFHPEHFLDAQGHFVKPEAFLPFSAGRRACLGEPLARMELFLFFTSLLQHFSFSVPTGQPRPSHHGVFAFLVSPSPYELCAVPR
Chain of c-Raf-1 (P04049 whole entry, looked up): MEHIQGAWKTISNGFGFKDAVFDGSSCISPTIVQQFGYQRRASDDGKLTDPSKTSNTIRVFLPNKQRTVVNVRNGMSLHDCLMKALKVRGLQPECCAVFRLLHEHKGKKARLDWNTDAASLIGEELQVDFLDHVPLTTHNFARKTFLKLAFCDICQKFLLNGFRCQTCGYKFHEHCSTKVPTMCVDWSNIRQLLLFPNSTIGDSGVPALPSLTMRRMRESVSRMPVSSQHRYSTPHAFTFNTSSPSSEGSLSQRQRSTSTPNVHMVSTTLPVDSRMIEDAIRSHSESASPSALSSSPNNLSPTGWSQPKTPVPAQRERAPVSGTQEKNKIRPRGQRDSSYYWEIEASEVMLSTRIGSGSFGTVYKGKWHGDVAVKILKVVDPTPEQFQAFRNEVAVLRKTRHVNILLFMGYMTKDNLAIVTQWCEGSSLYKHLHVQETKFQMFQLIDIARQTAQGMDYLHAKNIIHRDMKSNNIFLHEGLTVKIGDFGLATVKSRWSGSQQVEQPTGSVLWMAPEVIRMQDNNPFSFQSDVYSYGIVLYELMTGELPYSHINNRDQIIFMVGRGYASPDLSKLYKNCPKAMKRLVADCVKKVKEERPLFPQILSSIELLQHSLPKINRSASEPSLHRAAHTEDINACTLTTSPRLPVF
Chain of B-Raf V600E (P15056 whole entry V600E): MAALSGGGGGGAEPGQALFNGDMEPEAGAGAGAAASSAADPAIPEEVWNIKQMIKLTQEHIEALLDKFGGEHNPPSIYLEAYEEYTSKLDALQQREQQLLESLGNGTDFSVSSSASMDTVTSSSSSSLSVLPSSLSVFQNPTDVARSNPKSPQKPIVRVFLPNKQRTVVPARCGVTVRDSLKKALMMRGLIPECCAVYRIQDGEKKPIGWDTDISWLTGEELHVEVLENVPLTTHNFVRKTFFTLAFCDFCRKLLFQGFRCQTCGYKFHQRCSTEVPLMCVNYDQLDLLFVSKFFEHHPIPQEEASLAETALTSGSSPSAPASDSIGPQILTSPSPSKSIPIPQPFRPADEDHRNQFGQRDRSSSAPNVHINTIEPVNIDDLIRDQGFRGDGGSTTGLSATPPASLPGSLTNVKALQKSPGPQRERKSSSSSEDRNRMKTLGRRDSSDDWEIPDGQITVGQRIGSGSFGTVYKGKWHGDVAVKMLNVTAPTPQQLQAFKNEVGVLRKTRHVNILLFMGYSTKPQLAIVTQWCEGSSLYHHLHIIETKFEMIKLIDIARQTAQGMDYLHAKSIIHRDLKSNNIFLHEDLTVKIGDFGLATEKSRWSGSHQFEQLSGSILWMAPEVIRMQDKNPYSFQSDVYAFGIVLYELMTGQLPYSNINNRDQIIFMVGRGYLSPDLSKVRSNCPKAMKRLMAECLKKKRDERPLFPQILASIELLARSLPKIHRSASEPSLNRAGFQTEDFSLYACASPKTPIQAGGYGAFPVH
Chain of B-Raf (Homo sapiens (Human), UniProt P15056) (P15056 whole entry): as the sequence (P15056 whole entry V600E) above, with E600V counted along it
Chain of CYP1A2 (P05177 whole entry): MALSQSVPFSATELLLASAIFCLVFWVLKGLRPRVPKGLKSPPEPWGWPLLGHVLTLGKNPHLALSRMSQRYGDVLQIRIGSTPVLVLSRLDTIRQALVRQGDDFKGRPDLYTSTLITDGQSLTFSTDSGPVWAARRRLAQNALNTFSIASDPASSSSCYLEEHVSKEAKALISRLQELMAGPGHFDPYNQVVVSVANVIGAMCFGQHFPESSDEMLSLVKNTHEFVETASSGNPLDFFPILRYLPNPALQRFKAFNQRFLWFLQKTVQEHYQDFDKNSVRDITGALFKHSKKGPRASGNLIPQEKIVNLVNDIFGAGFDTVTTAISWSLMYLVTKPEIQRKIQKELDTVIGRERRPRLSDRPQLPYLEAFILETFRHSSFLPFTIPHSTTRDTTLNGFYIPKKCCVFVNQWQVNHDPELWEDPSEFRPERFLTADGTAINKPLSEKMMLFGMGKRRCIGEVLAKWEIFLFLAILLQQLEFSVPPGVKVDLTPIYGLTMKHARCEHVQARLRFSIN
Chain of CYP2C9 (P11712 whole entry): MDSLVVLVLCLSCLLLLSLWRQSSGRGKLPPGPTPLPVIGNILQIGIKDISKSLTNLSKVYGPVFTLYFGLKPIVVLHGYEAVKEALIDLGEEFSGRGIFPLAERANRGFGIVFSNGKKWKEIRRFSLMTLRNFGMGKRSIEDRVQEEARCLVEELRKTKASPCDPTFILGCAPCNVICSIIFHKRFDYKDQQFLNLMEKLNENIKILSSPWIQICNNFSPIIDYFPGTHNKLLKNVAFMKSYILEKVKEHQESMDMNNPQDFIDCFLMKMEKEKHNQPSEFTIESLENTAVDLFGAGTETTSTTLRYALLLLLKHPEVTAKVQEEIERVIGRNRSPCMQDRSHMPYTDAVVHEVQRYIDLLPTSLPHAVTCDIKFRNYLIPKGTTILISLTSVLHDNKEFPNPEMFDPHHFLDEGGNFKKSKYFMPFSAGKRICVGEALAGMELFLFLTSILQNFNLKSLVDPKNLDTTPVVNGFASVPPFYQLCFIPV
Chain of CYP3A4(BFC) (P08684 whole entry): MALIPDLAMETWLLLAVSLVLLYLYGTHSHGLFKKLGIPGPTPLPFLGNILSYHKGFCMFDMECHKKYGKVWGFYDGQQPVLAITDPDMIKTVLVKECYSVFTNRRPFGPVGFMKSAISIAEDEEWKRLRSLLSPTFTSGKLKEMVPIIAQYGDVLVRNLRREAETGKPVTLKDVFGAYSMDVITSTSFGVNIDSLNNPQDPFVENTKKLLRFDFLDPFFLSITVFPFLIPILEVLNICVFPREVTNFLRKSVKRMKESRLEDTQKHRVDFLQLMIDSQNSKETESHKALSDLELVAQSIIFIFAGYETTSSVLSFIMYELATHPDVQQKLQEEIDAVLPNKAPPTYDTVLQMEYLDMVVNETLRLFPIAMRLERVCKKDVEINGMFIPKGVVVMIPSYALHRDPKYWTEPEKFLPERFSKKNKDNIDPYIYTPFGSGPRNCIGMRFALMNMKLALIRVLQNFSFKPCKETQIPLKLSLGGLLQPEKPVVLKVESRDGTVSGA
Chain of CYP3A4(BQ) (P08684 whole entry): as above
Chain of CYP2C19 (P33261 whole entry): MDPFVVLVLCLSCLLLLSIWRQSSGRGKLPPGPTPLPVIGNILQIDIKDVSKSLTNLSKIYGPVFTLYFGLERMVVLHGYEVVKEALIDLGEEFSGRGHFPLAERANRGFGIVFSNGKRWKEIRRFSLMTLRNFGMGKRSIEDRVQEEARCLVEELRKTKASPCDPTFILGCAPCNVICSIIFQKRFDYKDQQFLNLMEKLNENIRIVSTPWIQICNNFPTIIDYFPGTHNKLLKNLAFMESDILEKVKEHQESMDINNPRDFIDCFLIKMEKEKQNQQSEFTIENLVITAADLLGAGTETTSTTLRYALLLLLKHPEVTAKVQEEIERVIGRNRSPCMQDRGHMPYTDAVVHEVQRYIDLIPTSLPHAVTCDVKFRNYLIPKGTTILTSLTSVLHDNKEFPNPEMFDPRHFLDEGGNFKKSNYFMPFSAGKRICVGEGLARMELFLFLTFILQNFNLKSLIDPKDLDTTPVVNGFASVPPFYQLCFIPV

Row | IC50 (CYP3A4(BQ)) | IC50 (CYP2C19) | IC50 (CYP2C9) | IC50 (CYP1A2) | Compound | turbidity threshold (L, M, H) 1.4 [1] | turbidity threshold (L, M, H) 4.5 [1] | turbidity threshold (L, M, H) 6.8 [1] | turbidity threshold (L, M, H) 7.4 [1] | IC50 (CYP2C19; read-out: Cyp IC50 2C19, CYP2C19, substrate CEC) | IC50 (B-Raf V600E) | Biochemical activity ratio V600E/C (B-Raf V600E) | Biochemical activity ratio B/V600E (B-Raf [2]) | Biochemical activity ratio B/C (B-Raf [2]) | IC50 (B-Raf [3]) | IC50 (CYP1A2; human, 15 min) | IC50 (CYP2D6) | IC50 (CYP3A4(BFC)) | IC50 (CYP2C9; read-out: Cyp IC50 2C9, CYP2C9, substrate MFC) | IC50 (c-Raf-1) | IC50 (CYP3A4(BQ); read-out: Cyp IC50 3A4(BQ), CYP3A4, substrate BQ)
1 | > 10 µM | 5 to 10 µM | > 10 µM | > 10 µM | CCCS(=O)(=O)Nc1ccc(F)c(C(=O)c2c[nH]c3ncc(C)c(Cl)c23)c1F [P-2001, Propane-1-sulfonic acid [3-(4-chloro-5-methyl-1H-pyrrolo[2,3-b]pyridine-3-carbonyl)-2,4-difluoro-phenyl]-amide] | M (moderate solubility if the threshold concentration is 31.3 μM to 250 μM) | M (moderate solubility if the threshold concentration is 31.3 μM to 250 μM) | M (moderate solubility if the threshold concentration is 31.3 μM to 250 μM) | M (moderate solubility if the threshold concentration is 31.3 μM to 250 μM) | – | < 0.1 µM | 0.1-10 | 0.1-10 | 0.1-10 | < 0.1 µM | – | > 10 µM | > 10 µM | – | < 0.1 µM | –
2 | 5 to 10 µM | < 5 µM | < 5 µM | > 10 µM | CCCS(=O)(=O)Nc1ccc(F)c(C(=O)c2c[nH]c3ncc(OC)c(Cl)c23)c1F [P-2002, Propane-1-sulfonic acid [3-(4-chloro-5-methoxy-1H-pyrrolo[2,3-b]pyridine-3-carbonyl)-2,4-difluoro-phenyl]-amide] | M (moderate solubility if the threshold concentration is 31.3 μM to 250 μM) | M (moderate solubility if the threshold concentration is 31.3 μM to 250 μM) | M (moderate solubility if the threshold concentration is 31.3 μM to 250 μM) | M (moderate solubility if the threshold concentration is 31.3 μM to 250 μM) | – | < 0.1 µM | 0.1-10 | 0.1-10 | 0.1-10 | < 0.1 µM | – | > 10 µM | 5 to 10 µM | – | < 0.1 µM | –

Row | Compound | IC50 (CYP3A4(BQ)) | IC50 (CYP2C19) | IC50 (CYP2C9) | IC50 (CYP1A2) | turbidity threshold (L, M, H) 1.4 [1] | turbidity threshold (L, M, H) 4.5 [1] | turbidity threshold (L, M, H) 6.8 [1] | turbidity threshold (L, M, H) 7.4 [1] | IC50 (CYP2C19; read-out: Cyp IC50 2C19, CYP2C19, substrate CEC) | IC50 (B-Raf V600E) | Biochemical activity ratio V600E/C (B-Raf V600E) | Biochemical activity ratio B/V600E (B-Raf [2]) | Biochemical activity ratio B/C (B-Raf [2]) | IC50 (B-Raf [3]) | IC50 (CYP1A2; human, 15 min) | IC50 (CYP2D6) | IC50 (CYP3A4(BFC)) | IC50 (CYP2C9; read-out: Cyp IC50 2C9, CYP2C9, substrate MFC) | IC50 (c-Raf-1) | IC50 (CYP3A4(BQ); read-out: Cyp IC50 3A4(BQ), CYP3A4, substrate BQ)
3 | Cn1cc(Nc2ncnc3[nH]cc(C(=O)c4c(F)ccc(NS(=O)(=O)c5ccc(C(F)(F)F)cc5)c4F)c23)cn1 [P-1062, N-{2,4-Difluoro-3-[4-(1-methyl-1H-pyrazol-4-ylamino)-7H-pyrrolo[2,3-d]pyrimidine-5-carbonyl]-phenyl}-4-trifluoromethyl-benzenesulfonamide] | 5 to 10 µM | – | – | – | L (low solubility if the threshold concentration is <31.3 μM) | L (low solubility if the threshold concentration is <31.3 μM) | L (low solubility if the threshold concentration is <31.3 μM) | L (low solubility if the threshold concentration is <31.3 μM) | > 10 µM | < 0.1 µM | >10 | 0.1-10 | >10 | < 0.1 µM | > 10 µM | > 10 µM | 5 to 10 µM | < 5 µM | < 0.1 µM | –
4 | CCn1cc(Nc2ncnc3[nH]cc(C(=O)c4c(F)ccc(NS(=O)(=O)c5ccc(C(F)(F)F)cc5)c4F)c23)cn1 [P-1063, N-{3-[4-(1-Ethyl-1H-pyrazol-4-ylamino)-7H-pyrrolo[2,3-d]pyrimidine-5-carbonyl]-2,4-difluoro-phenyl}-4-trifluoromethyl-benzenesulfonamide] | – | 5 to 10 µM | 5 to 10 µM | – | L (low solubility if the threshold concentration is <31.3 μM) | L (low solubility if the threshold concentration is <31.3 μM) | L (low solubility if the threshold concentration is <31.3 μM) | L (low solubility if the threshold concentration is <31.3 μM) | – | > 0.1 µM | >10 | 0.1-10 | >10 | < 0.1 µM | > 10 µM | > 10 µM | 5 to 10 µM | – | < 0.1 µM | < 5 µM

— patent publication US9617267B2, “Compounds and methods for kinase modulation, and indications therefor” (Plexxikon Inc., priority 2009, dated 2017)
